Experimental findings from patent US12234211B2, “Cycloolefin substituted heteroaromatic compounds and their use” (HUTCHISON MEDIPHARMA LIMITED, priority 2017, dated 2025) are described below.

The target in the experiment is T1, IDH2-R140Q (Homo sapiens, UniProt P48735, R140Q).
T1 construct: expressed in transfected cells
T1 sequence (P48735 40-452 R140Q): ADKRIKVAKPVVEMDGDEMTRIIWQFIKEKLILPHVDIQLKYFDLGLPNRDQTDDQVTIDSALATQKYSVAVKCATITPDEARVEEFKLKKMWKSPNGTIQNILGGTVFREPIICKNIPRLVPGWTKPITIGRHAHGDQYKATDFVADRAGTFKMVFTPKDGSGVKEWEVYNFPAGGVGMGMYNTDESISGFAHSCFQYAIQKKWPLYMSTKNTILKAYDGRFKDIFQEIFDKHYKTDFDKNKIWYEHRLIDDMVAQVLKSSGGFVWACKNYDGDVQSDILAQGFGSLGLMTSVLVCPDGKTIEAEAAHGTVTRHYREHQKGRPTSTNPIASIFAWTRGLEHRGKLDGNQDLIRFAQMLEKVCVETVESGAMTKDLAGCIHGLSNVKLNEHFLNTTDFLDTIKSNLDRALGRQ
Put plainly: Fluorescent determination of IDH2-R140Q cell activity (2-HG in U87MGR140Q cells). The following applies: 72 hours incubation, read-out: IC50 (2-HG inhibition). Type of experiment: cell-based. As to the method:
Enzyme reaction solution: 1 mM nicotinamide adenine dinucleotide (NAD), 0.6 ng/μL D-2-hydroxyglutarate dehydrogenase (D2HGDH), 0.8 U/mL lipoamidase dehydrogenase (Diaphorase) and 60 μM Resazurin in 40 mM Tris.HCl pH 8.8 assay buffer.
Standard curve stock solution: The standard of 2-HG sodium salt was serially diluted in serum-free MEM medium to make a standard curve stock solution.
100 μL of U87MGR140Q cells were seeded at a density of 6×10^4/mL per well in a 96-well plate a.
From each well of 96-well plate a, 50 μL of the culture supernatant was transferred to the corresponding well of 96-well plate b; at the same time, 50 μL of standard curve stocking solution was added to other wells of 96-well plate b. Then 10 μl of 360 mM hydrochloric acid was added to all the wells. After shaking and mixing, the plate was placed on ice for 10 minutes, and then 10 μl of 420 mM Tris-base was added. After shaking and mixing, the plate was placed on ice for additional 5 minutes. Then the plate was centrifuged at 2500 rpm for 10 minutes.
After centrifuging, from each well of 96-well plate b, 20 μL of the supernatant was transferred to 96-well plate c. An additional 80 μL of the enzyme reaction solution was added to each well and incubated at 25° C. for 90 minutes.
A standard curve of the fluorescence value vs. the corresponding 2-HG concentration was made, and the 2-HG concentration corresponding to each concentration point of the compound was calculated, then the inhibition ratio was calculated, and the data was analyzed using XLfit5 (ID Business Solutions Limited) software to obtain the IC50 value.
The inhibition ratio was calculated as follows: Inhibition Ratio (IH %)=(1-2-HG concentration of test compound treated cells/2-HG concentration of control cells)×100%.
In the case of `CC[C@H](C)Nc1nc(N[C@H](C)C(F)(F)F)nc(C2=C(F)C(O)CCC2)n1` (mixture of isomers) [Compound 165], the IC50 (commonly the point on the concentration scale where inhibition reaches its midpoint) worked out at 198 nM.

As for `CCCNc1nc(N[C@H](C)C(F)(F)F)nc(C2=CC(O)CCC2)n1` (mixture of isomers) [Compound 133], the half-maximal inhibitory concentration (IC50) amounted to 174 nM.

Consider `CC1CC1Nc1nc(NC2CC(F)(F)C2)nc(C2=C(F)C(O)CCC2)n1` (stereo not shown) [Compound 50], for which the IC50 amounted to 72 nM.

As to `CC(C)C(=O)Nc1nc(N[C@H](C)C(F)(F)F)nc(C2=CC(O)CCC2)n1` (mixture of isomers) [Compound 137], the IC50 came out at 1540 nM.

In the case of `[2H]C([2H])([2H])C([2H])(Nc1nc(NC2CC(F)(F)C2)nc(C2=C(F)C(O)CCC2)n1)C([2H])([2H])[2H]` (stereo not shown) [Compound 55], the IC50 worked out at 103 nM.

For the molecule `C[C@@H](Nc1nc(NC2CCCC2)nc(C2=C(F)C(O)CCC2)n1)C(F)(F)F` (mixture of isomers) [Compound 10], the IC50 came to 113 nM.

As for `C[C@@H](Nc1nc(N[C@@H]2C[C@@H]2F)nc(C2=C(F)C(O)CCC2)n1)C(F)(F)F` (mixture of isomers) [Compound 16], the half-maximal inhibitory concentration (IC50) worked out at 326 nM.

In the case of `C[C@@H](Nc1nc(NCC(F)(F)F)nc(C2=CC(O)CCC2)n1)C(F)(F)F` (mixture of isomers) [Compound 154], the IC50 was 202 nM.

`C[C@@H](Nc1nc(NCC(C)(C)O)nc(C2=CC(O)CCC2)n1)C(F)(F)F` (mixture of isomers) [Compound 131]: the IC50 came to 2800 nM.

Take `C[C@@H](Nc1nc(N[C@H](C)C2CC2)nc(C2=CCCCC2)n1)C1CC1` [Compound 191]: the IC50 was found to be 999 nM.

As to `C[C@H](CF)Nc1nc(NC2CC(F)(F)C2)nc(C2=C(F)C(O)CCC2)n1` (stereo partly shown) [Compound 43], the IC50 came out at 328 nM.

Consider `COC[C@H](C)Nc1nc(N[C@H](C)C(F)(F)F)nc(C2=CC(O)CCC2)n1` (stereo partly shown) [Compound 183], for which the IC50 amounted to 507 nM.

In the case of `C[C@@H](Nc1nc(N[C@H]2CCOC2)nc(C2=CC(F)(F)CCC2)n1)C(F)(F)F` [Compound 139], the IC50 was 2510 nM.

`[2H]C([2H])([2H])C([2H])(Nc1nc(N[C@@H](C)C(F)(F)F)nc(C2=C(F)C(O)CCC2)n1)C([2H])([2H])[2H]` (stereo partly shown) [Compound 53]: the IC50 was determined as 131 nM.

`CCCNc1nc(N[C@H](C)C(F)(F)F)nc(C2=C(F)C(O)C(F)(F)CC2)n1` (mixture of isomers) [Compound 248]: the IC50 amounted to 93 nM.

`OC1CCCC(c2nc(NC3CC3)nc(NC3CC(F)(F)C3)n2)=C1F` (stereo not shown) [Compound 27]: the IC50 was 148 nM.

As to `C[C@@H](Nc1nc(NCC2CC2)nc(C2=CCCCC2)n1)C(F)(F)F` [Compound 192], the half-maximal inhibitory concentration (IC50) was determined as 314 nM.

As for `C[C@@H](Nc1nc(NC2CC2)nc(C2=CC(O)CCC2)n1)C(F)(F)F` (mixture of isomers) [Compound 129], the IC50 turned out to be 171 nM.

`OC1CCCC(c2nc(NC3CC3)nc(NC3CC(F)(F)C3)n2)=C1F` (stereo not shown) [Compound 49]: the IC50 was found to be 210 nM.

For `[2H]C1(O)CCCC(c2nc(N[C@@H](C)C(F)(F)F)nc(NC([2H])(C([2H])([2H])[2H])C([2H])([2H])[2H])n2)=C1F` (mixture of isomers) [Compound 30], the IC50 came out at 228 nM.

`CC(C)Nc1nc(N[C@H](C)C(F)(F)F)nc(C2=CCCCC2)n1` [Compound 190, (R)-6-(cyclohex-1-en-1-yl)-N^2-isopropyl-N^4-(1,1,1-trifluoropropan-2-yl)-1,3,5-triazine-2,4-diamine]: the IC50 was found to be 413 nM.

Turning to `C[C@@H](Nc1nc(NC2CC2)nc(C2=C(F)C(O)CCC2)n1)C(F)(F)F` (mixture of isomers) [Compound 162], the IC50 worked out at 177 nM.

Consider `C[C@@H](Nc1nc(NC2CCC(F)(F)C2)nc(C2=CC(O)CCC2)n1)C(F)(F)F` (mixture of isomers) [Compound 176], for which the IC50 came out at 612 nM.

On to `C[C@@H](Nc1nc(NOC(C)(C)C)nc(C2=C(F)C(O)CCC2)n1)C(F)(F)F` (mixture of isomers) [Compound 172], for which the IC50 was 344 nM.

For `C[C@@H](Nc1nc(NC2CC3(C2)CC(F)(F)C3)nc(C2=C(F)C(O)CCC2)n1)C(F)(F)F` (mixture of isomers) [Compound 160], the IC50 was found to be 180 nM.

With `[2H]C1([2H])CCC(c2nc(NC(C)C)nc(NC3CC(F)(F)C3)n2)=C(F)C1([2H])O` (racemic) [Compound 92], the IC50 came to 143 nM.

Take `C[C@@H](Nc1nc(NC2CC23CC3)nc(C2=C(F)C(O)CCC2)n1)C(F)(F)F` (mixture of isomers) [Compound 42]: the IC50 came out at 152 nM.

Regarding `C[C@@H](Nc1nc(N[C@@H]2CCC[C@@H]2O)nc(C2=CC(O)CCC2)n1)C(F)(F)F` (stereo partly shown) [Compound 182], the IC50 turned out to be 1230 nM.

In the case of `CC(C)Nc1nc(N[C@H](C)C(F)(F)F)nc(C2=CCC(F)CC2)n1` (mixture of isomers) [Compound 38], the IC50 stood at 1620 nM.

With `[2H]C1(O)CCCC(c2nc(N[C@H](C)C(F)(F)F)nc(NC([2H])(C([2H])([2H])[2H])C([2H])([2H])[2H])n2)=C1F` (mixture of isomers) [Compound 29], the IC50 worked out at 177 nM.

As to `[2H]C1(O)CCCC(c2nc(NC(C)C)nc(N[C@H](C)C(F)(F)F)n2)=C1F` (mixture of isomers) [Compound 23], the IC50 worked out at 192 nM.

Turning to `C1=C(c2nc(NCC3CC3)nc(NCC3CC3)n2)CCCC1` [Compound 187], the IC50 stood at 742 nM.

As for `CC(C)Nc1nc(NC(C)C)nc(C2=C(F)C(O)CCC2)n1` (stereo not shown) [Compound 25], the IC50 is 665 nM.

As for `[2H]C1([2H])CCC(c2nc(NC3CC(F)(F)C3)nc(N[C@@H](C)C(F)(F)F)n2)=C(F)C1([2H])O` (mixture of isomers) [Compound 90], the IC50 is 65 nM.

`[2H]C1([2H])CCC(c2nc(Nc3ccnc(C(F)(F)F)c3)nc(NC([2H])(C([2H])([2H])[2H])C([2H])([2H])[2H])n2)=C(F)C1O` (stereo not shown) [Compound 86]: the 50% inhibitory concentration (IC50) was determined as 21 nM.

As for `CC(C)Nc1nc(N[C@H](C)C(F)(F)F)nc(C2=CC(F)(F)CCC2)n1` [Compound 138, (R)-6-(3,3-difluorocyclohex-1-en-1-yl)-N^2-isopropyl-N^4-(1,1,1-trifluoropropan-2-yl)-1,3,5-triazine-2,4-diamine], the IC50 stood at 504 nM.

Regarding `C[C@@H](Nc1nc(NCC(C)(C)O)nc(C2=CCCCC2)n1)C(F)(F)F` [Compound 188], the IC50 turned out to be 5020 nM.

Take `[2H]C1(O)CCCCC(c2nc(NC3CC(F)(F)C3)nc(NC3CC(F)(F)C3)n2)=C1F` (stereo not shown) [Compound 22]: the IC50 was found to be 336 nM.

Consider `[2H]C([2H])([2H])Nc1nc(Nc2ccnc(C(F)(F)F)c2)nc(C2=C(F)C(O)CCC2)n1` (stereo not shown) [Compound 58], for which the IC50 came out at 169 nM.

`COC1C=C(c2nc(N[C@H](C)C(F)(F)F)nc(N[C@H](C)C(F)(F)F)n2)CCC1` (mixture of isomers) [Compound 140, 6-(3-Methoxycyclohex-1-en-1-yl)-N^2,N^4-bis((R)-1,1,1-trifluoropropan-2-yl)-1,3,5-triazine-2,4-diamine]: the IC50 came out at 2390 nM.

On to `CC(C)Nc1nc(N[C@H](C)C(F)(F)F)nc(C2=C(F)C(F)CCC2)n1` (mixture of isomers) [Compound 35, 6-(2,3-Difluorocyclohex-1-en-1-yl)-N^2-isopropyl-N^4-((R)-1,1,1-trifluoropropan-2-yl)-1,3,5-triazine-2,4-diamine], for which the IC50 worked out at 591 nM.

Regarding `CCNc1nc(N[C@H](C)C(F)(F)F)nc(C2=CC(O)CCC2)n1` (mixture of isomers) [Compound 135], the IC50 came to 336 nM.

In the case of `CC(C)Nc1nc(N[C@H](C)C(F)(F)F)nc(C2=CCCC(F)C2)n1` (mixture of isomers) [Compound 37], the IC50 was 1910 nM.

On to `CC(C)Nc1nc(NC2CC(F)(F)C2)nc(C2=C(F)C(O)CCC2)n1` (stereo not shown) [Compound 28], for which the half-inhibitory concentration (IC50) turned out to be 123 nM.

For the molecule `CC(C)Nc1nc(N[C@H](C)C(F)(F)F)nc(C2=CC(=O)CCC2)n1` [Compound 122, (R)-3-(4-(isopropylamino)-6-((1,1,1-trifluoropropan-2-yl)amino)-1,3,5-triazin-2-yl)cyclohex-2-en-1-one], the IC50 worked out at 1340 nM.

Regarding `CC(C)Nc1nc(N[C@H](C)C(F)(F)F)nc(C2=CC(F)CCC2)n1` (mixture of isomers) [Compound 36], the IC50 came out at 181 nM.

In the case of `C[C@@H](Nc1nc(Nc2ccn3ccnc3c2)nc(C2=C(F)C(O)CCC2)n1)C(F)(F)F` (stereo partly shown) [Compound 44], the IC50 was found to be 3150 nM.

For `C[C@@H](Nc1nc(NC2COC2)nc(C2=CC(O)CCC2)n1)C(F)(F)F` (stereo partly shown) [Compound 178], the IC50 was determined as 934 nM.

Regarding `CC(C)Nc1nc(N[C@H](C)C(F)(F)F)nc(C2=C(Cl)C(O)CCC2)n1` (mixture of isomers) [Compound 17], the IC50 was determined as 1620 nM.
